# “And” between values parts separate entries of the source, which are not always exact repeats. Equal entries are not always repeated.
# Assays:
# mGluR2 [1] = biological target: mGluR2 (Mus musculus, UniProt Q14BI2, A548F); test: Live-cell FRET, azi-CRD (cysteine-rich domain) sensor in HEK293T cells; details: for azi-CRD normalized FRET response, Mean / azi-CRD normalized FRET response, individual cell: Glutamate + 10μM modulator (NAM); for azi-CRD normalized FRET response, Mean: maximal response normalized to 1mM glutamate; for azi-CRD normalized FRET response, individual cell: single-cell replicate
# mGluR2 (Mus musculus, UniProt Q14BI2, A548F), sequence (Q14BI2 19-872 A548F): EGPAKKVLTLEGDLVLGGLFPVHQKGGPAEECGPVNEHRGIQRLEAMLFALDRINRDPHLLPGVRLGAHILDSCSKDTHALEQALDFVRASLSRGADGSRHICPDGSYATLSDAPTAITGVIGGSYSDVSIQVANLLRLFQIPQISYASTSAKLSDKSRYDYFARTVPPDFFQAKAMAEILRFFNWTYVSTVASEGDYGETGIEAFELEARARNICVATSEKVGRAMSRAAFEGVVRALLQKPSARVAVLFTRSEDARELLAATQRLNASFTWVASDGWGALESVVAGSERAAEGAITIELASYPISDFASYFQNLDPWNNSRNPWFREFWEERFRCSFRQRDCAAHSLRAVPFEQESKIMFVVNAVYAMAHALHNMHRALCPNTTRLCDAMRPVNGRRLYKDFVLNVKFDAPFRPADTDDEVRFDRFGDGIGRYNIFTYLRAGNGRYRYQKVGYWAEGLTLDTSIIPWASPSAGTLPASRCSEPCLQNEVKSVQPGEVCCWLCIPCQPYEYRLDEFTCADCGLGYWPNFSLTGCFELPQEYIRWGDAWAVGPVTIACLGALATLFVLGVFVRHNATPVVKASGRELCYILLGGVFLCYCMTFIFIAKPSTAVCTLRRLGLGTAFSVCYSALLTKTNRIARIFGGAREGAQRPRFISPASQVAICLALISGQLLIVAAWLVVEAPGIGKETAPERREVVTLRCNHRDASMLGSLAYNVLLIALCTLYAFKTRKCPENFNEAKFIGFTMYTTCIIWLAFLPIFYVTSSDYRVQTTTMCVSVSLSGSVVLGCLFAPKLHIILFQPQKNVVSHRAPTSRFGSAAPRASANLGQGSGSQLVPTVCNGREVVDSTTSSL
# mGluR2 [2] = biological target: T1, mGluR2 (Mus musculus, UniProt Q14BI2); test: Live-cell FRET, SNAP-m2 (VFT domain) inter-subunit sensor in HEK293T cells; details: for Mean normalized FRET response, SNAP-m2 NAM DRC: glutamate + 10μM modulator, maximal response normalized to 1mM glutamate;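 on all read-outs here: apparent FRET efficiency from whole-membrane ROIs of single cells, corrected for donor bleed-through and background, ΔFRET as treatment minus pretreatment signal, recorded at room temperature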
# T1 sequence (Q14BI2 19-872): as the sequence (Q14BI2 19-872 A548F) above, with F530A counted along it
# mGluR2 [3] = biological target: mGluR2 (Mus musculus, UniProt Q14BI2, INS715F); test: Live-cell FRET, azi-ECL2 (7TM domain, extracellular loop 2) sensor in HEK293T cells; details: for Mean normalized azi-ECL2 FRET response: glutamate + 10μM modulator, maximal response normalized to 1mM glutamate;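 on all read-outs here: Cy3/Cy5 click-labeled sensor, whole-membrane ROIs per cell, apparent FRET after bleed-through correction, ΔFRET as treatment minus pre-treatment signal, at room temperature, at least three biological replicates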
# mGluR2 (Mus musculus, UniProt Q14BI2, INS715F), sequence (Q14BI2 with tags, fused parts or gaps INS715F): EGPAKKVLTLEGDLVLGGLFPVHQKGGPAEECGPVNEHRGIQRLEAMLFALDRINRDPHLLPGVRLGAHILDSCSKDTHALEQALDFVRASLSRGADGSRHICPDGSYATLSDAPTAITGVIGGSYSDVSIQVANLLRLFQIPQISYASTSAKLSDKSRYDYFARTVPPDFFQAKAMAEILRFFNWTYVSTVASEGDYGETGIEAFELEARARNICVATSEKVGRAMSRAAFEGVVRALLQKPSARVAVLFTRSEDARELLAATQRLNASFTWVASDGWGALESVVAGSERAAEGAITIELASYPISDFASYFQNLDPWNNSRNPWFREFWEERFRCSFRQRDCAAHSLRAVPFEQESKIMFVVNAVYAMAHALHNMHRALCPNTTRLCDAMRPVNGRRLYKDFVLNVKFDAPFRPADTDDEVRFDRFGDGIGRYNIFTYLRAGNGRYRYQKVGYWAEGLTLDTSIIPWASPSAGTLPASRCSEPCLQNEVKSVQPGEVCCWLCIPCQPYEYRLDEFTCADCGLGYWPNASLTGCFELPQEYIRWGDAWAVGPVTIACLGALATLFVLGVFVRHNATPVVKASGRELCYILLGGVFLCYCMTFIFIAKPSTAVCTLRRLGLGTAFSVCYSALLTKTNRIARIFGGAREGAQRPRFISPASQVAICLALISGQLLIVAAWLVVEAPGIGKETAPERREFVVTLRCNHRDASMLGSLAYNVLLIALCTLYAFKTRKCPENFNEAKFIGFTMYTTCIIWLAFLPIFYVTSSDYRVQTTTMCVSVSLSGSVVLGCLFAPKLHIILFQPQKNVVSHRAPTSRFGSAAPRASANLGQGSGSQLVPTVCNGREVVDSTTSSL
# mGluR2 [4] = biological target: T1, mGluR2; test: Functional calcium imaging, SNAP-mGluR2 (no FLAG-tag) with chimeric G protein Gqo5 in HEK293T cells; assay type: cell-based; set-up: Full length mGluR2 construct with an amber codon (TAG) mutation of amino acid A548 (azi-CRD) or N-terminal SNAP-tag (SNAP-mGluR2); host or cells: HEK293T; details: for Intracellular Ca2+ Response (normalized to 1mM glutamate), Mean: Glutamate + 90nM Ro 64-5229
# [5] = 10μM Ro 64-5229, ([1 mM glutamate + modulator] - [1 mM glutamate]) × 100
smiles,measurement,setting,value
Clc1cccc(Cl)c1/C(=C/n1cncn1)OC1CCCCCC1 [Ro 64–5229],"azi-CRD - ΔEfficacy, Mean ΔEfficacy",mGluR2 [1]; [5],-41.4006
same,"azi-CRD - ΔEfficacy, individual cell responses","mGluR2 [1]; 10μM Ro 64-5229, single cells",-28.0702 and -27.0053 and -21.7759 and -17.8571 and -54.2848 and -56.1085 and -49.8998 and -39.7625 and -52.6646 and -45.8685 and -32.6644 and -42.4305 and -51.9931 and -35.5526 and -41.2702 and -37.27 and -50.0412 and -60.6915
same,"azi-CRD normalized FRET response, Mean",mGluR2 [1]; log[Glutamate] (M) -3,0.586
same,"azi-CRD normalized FRET response, individual cell",mGluR2 [1]; log[Glutamate] (M) -3,0.586
same,"azi-CRD normalized FRET response, Mean",mGluR2 [1]; log[Glutamate] (M) -4.1549,0.5093
same,"azi-CRD normalized FRET response, individual cell",mGluR2 [1]; log[Glutamate] (M) -4.1549,0.5346 and 0.4622 and 0.5203 and 0.5084 and 0.5826 and 0.5517 and 0.4974 and 0.5062 and 0.5143 and 0.4926 and 0.4963 and 0.4643 and 0.4905
same,"azi-CRD normalized FRET response, Mean",mGluR2 [1]; log[Glutamate] (M) -4.52288,0.3977
same,"azi-CRD normalized FRET response, individual cell",mGluR2 [1]; log[Glutamate] (M) -4.52288,0.3335 and 0.3611 and 0.3991 and 0.4165 and 0.5072 and 0.4352 and 0.378 and 0.3755 and 0.3785 and 0.4157 and 0.3821 and 0.3693 and 0.4189
same,"azi-CRD normalized FRET response, Mean",mGluR2 [1]; log[Glutamate] (M) -5,0.2248
same,"azi-CRD normalized FRET response, individual cell",mGluR2 [1]; log[Glutamate] (M) -5,0.1496 and 0.3033 and 0.2652 and 0.2455 and 0.317 and 0.2125 and 0.1682 and 0.183 and 0.1871 and 0.1831 and 0.172 and 0.2951 and 0.2409
same,"azi-CRD normalized FRET response, Mean",mGluR2 [1]; log[Glutamate] (M) -5.39794,0.1255
same,"azi-CRD normalized FRET response, individual cell",mGluR2 [1]; log[Glutamate] (M) -5.39794,0.1184 and 0.1898 and 0.1288 and 0.1204 and 0.1285 and 0.1251 and 0.1085 and 0.1183 and 0.1305 and 0.09889 and 0.1192 and 0.1155 and 0.1302
same,"azi-CRD normalized FRET response, Mean",mGluR2 [1]; log[Glutamate] (M) -5.82391,0.06192
same,"azi-CRD normalized FRET response, individual cell",mGluR2 [1]; log[Glutamate] (M) -5.82391,0.04987 and 0.1052 and 0.0682 and 0.05385 and 0.04969 and 0.05654 and 0.05788 and 0.05365 and 0.05774 and 0.05311 and 0.05405 and 0.04746 and 0.09767
same,"azi-CRD normalized FRET response, Mean",mGluR2 [1]; log[Glutamate] (M) -6.52288,0.03074
same,"azi-CRD normalized FRET response, individual cell",mGluR2 [1]; log[Glutamate] (M) -6.52288,0.03117 and 0.03301 and 0.02778 and 0.02217 and 0.02741 and 0.0634 and 0.03617 and 0.02751 and 0.02353 and 0.01178 and 0.01113 and 0.04333 and 0.04124
same,"azi-CRD normalized FRET response, Mean",mGluR2 [1]; log[Glutamate] (M) -7,0
same,"azi-CRD normalized FRET response, individual cell",mGluR2 [1]; log[Glutamate] (M) -7,0
same,Hill slope of glutamate titration,"mGluR2 [1]; azi-CRD sensor, + 10 μM modulator",1.05
same,Live-cell FRET max response normalized to 1mM glutamate,"mGluR2 [1]; azi-CRD sensor, Glutamate + 10μM Ro 64-5229, individual values (N=18)",0.4572 and 0.4389 and 0.501 and 0.6024 and 0.4733 and 0.5413 and 0.6734 and 0.5757 and 0.4801 and 0.6445 and 0.5873 and 0.6273 and 0.4996 and 0.3931 and 0.7193 and 0.7299 and 0.7822 and 0.8214
same,Mean max response (normalized max ΔFRET),"mGluR2 [1]; azi-CRD, 1 mM glutamate + 10 μM modulator, normalized to 1 mM glutamate",0.59
same,Mean ΔPotency,"mGluR2 [1]; azi-CRD, 10μM modulator, (([modulator + glutamate]EC50 – [glutamate] EC50)/[glutamate] EC50) × 100",46.1673
same,"ΔPotency, individual cell","mGluR2 [1]; azi-CRD, 10μM modulator, calculated from individual cell responses",111.788 and 54.4953 and 84.4604 and 80.2661 and 72.5435 and 46.8592 and 26.2598 and 27.1246 and 2.91 and 18.4766 and 20.2062 and -17.7582
same,"SNAP-m2 - ΔEfficacy, Mean ΔEfficacy",mGluR2 [2]; [5],-12.5077
same,Mean max response (normalized max ΔFRET),"mGluR2 [2]; SNAP-m2, 1 mM glutamate + 10 μM modulator, normalized to 1 mM glutamate",0.87
same,Mean ΔPotency,"mGluR2 [2]; SNAP-m2, 10μM modulator, (([modulator + glutamate]EC50 – [glutamate] EC50)/[glutamate] EC50) × 100",64.9494
same,Mean ΔEfficacy,"mGluR2 [2]; SNAP-m2, 10μM modulator, ([1 mM glutamate + modulator] - [1 mM glutamate]) × 100",-12.5077
same,Hill slope of glutamate titration,"mGluR2 [2]; SNAP-m2 sensor, + 10 μM modulator",–1.52
same,"Mean normalized FRET response, SNAP-m2 NAM DRC",mGluR2 [2]; log[Glutamate] (M) -3,-0.8749
same,"Mean normalized FRET response, SNAP-m2 NAM DRC",mGluR2 [2]; log[Glutamate] (M) -4.1549,-0.7502
same,"Mean normalized FRET response, SNAP-m2 NAM DRC",mGluR2 [2]; log[Glutamate] (M) -4.52288,-0.5932
same,"Mean normalized FRET response, SNAP-m2 NAM DRC",mGluR2 [2]; log[Glutamate] (M) -5,-0.2293
same,"Mean normalized FRET response, SNAP-m2 NAM DRC",mGluR2 [2]; log[Glutamate] (M) -5.39794,-0.07065
same,"Mean normalized FRET response, SNAP-m2 NAM DRC",mGluR2 [2]; log[Glutamate] (M) -5.82391,-0.0217
same,"Mean normalized FRET response, SNAP-m2 NAM DRC",mGluR2 [2]; log[Glutamate] (M) -6.52288,0
same,"Mean normalized FRET response, SNAP-m2 NAM DRC",mGluR2 [2]; log[Glutamate] (M) -7,0
same,"Mean normalized FRET response, SNAP-m2 NAM DRC",mGluR2 [2]; log[Glutamate] (M) -7.69897,0
same,"Mean normalized FRET response, SNAP-m2 NAM DRC",mGluR2 [2]; log[Glutamate] (M) -4.69897,-0.4605
same,"azi-ECL2 - ΔEfficacy, Mean ΔEfficacy",mGluR2 [3]; [5],-16.382
same,Mean ΔPotency,"mGluR2 [3]; 10μM modulator, (([modulator + glutamate]EC50 – [glutamate] EC50)/[glutamate] EC50) × 100",238.581
same,"ΔPotency, individual cell responses","mGluR2 [3]; 10μM modulator, single cells, (([modulator + glutamate]EC50 – [glutamate] EC50)/[glutamate] EC50) × 100",105.749 and 188.087 and 277.044 and 382.546 and 239.476
same,"ΔEfficacy, individual cell responses","mGluR2 [3]; 10μM modulator, single cells, ([1 mM glutamate + modulator] - [1 mM glutamate]) × 100",-3.67 and -2.778 and -15 and -26.6667 and -29.3756 and -15.3219 and -1.127 and -37.1174
same,Mean max response (normalized max ΔFRET),"mGluR2 [3]; azi-ECL2, 1 mM glutamate + 10 μM modulator, normalized to 1 mM glutamate",0.84
same,Hill slope of glutamate titration,"mGluR2 [3]; azi-ECL2 sensor, + 10 μM modulator",1.07
same,Live-cell FRET max response normalized to 1mM glutamate,"mGluR2 [3]; azi-ECL2 sensor, Glutamate + 10μM Ro 64-5229, individual values (N=8)",0.7062 and 0.8468 and 0.9887 and 0.6288 and 0.9633 and 0.9722 and 0.85 and 0.7333
same,Mean normalized azi-ECL2 FRET response,mGluR2 [3]; log[Glutamate] (M) -3,0.8362
same,Mean normalized azi-ECL2 FRET response,mGluR2 [3]; log[Glutamate] (M) -4.1549,0.6516
same,Mean normalized azi-ECL2 FRET response,mGluR2 [3]; log[Glutamate] (M) -4.52288,0.5392
same,Mean normalized azi-ECL2 FRET response,mGluR2 [3]; log[Glutamate] (M) -5,0.3248
same,Mean normalized azi-ECL2 FRET response,mGluR2 [3]; log[Glutamate] (M) -5.39794,0.1335
same,Mean normalized azi-ECL2 FRET response,mGluR2 [3]; log[Glutamate] (M) -5.82391,0.04706
same,Mean normalized azi-ECL2 FRET response,mGluR2 [3]; log[Glutamate] (M) -6.52288,0
same,Mean normalized azi-ECL2 FRET response,mGluR2 [3]; log[Glutamate] (M) -7,0
same,Mean normalized azi-ECL2 FRET response,mGluR2 [3]; log[Glutamate] (M) -7.69897,0
same,Mean normalized azi-ECL2 FRET response,mGluR2 [3]; log[Glutamate] (M) -4.69897,0.5381
same,Effect on receptor activation (calcium imaging) in the presence of glutamate,mGluR2 [4]; 10 μM NAM,block receptor activation
same,"Intracellular Ca2+ Response, % 1mM Glutamate","mGluR2 [4]; 1mM Glutamate + 90nM Ro 64-5229, individual experiments",79.692% and 78.096% and 66.28%
same,Mean ΔEfficacy of glutamate,"mGluR2 [4]; Ca2+ response, 1 mM glutamate + 90 nM modulator, ([1 mM glutamate + modulator] - [1 mM glutamate]) × 100",-25.3109
same,"ΔEfficacy of glutamate, individual experiments","mGluR2 [4]; Ca2+ response, 1 mM glutamate + 90 nM modulator, single replicate",-21.9043 and -33.7198 and -20.3084
same,Mean ΔPotency of glutamate,"mGluR2 [4]; Ca2+ response, glutamate + 90 nM modulator, (([modulator + glutamate]EC50 – [glutamate]EC50)/[glutamate]EC50) × 100",160.286
same,"ΔPotency of glutamate, individual experiments","mGluR2 [4]; Ca2+ response, glutamate + 90 nM modulator, single replicate",46.8661 and 141.491 and 292.502
same,"Intracellular Ca2+ Response (normalized to 1mM glutamate), Mean",mGluR2 [4]; log[Glutamate] (M) -3,0.7469
same,"Intracellular Ca2+ Response (normalized to 1mM glutamate), Mean",mGluR2 [4]; log[Glutamate] (M) -3.60206,0.7222
same,"Intracellular Ca2+ Response (normalized to 1mM glutamate), Mean",mGluR2 [4]; log[Glutamate] (M) -4.1549,0.5737
same,"Intracellular Ca2+ Response (normalized to 1mM glutamate), Mean",mGluR2 [4]; log[Glutamate] (M) -4.52288,0.2233
same,"Intracellular Ca2+ Response (normalized to 1mM glutamate), Mean",mGluR2 [4]; log[Glutamate] (M) -5,0.1471
same,"Intracellular Ca2+ Response (normalized to 1mM glutamate), Mean",mGluR2 [4]; log[Glutamate] (M) -5.39794,0
same,"Intracellular Ca2+ Response (normalized to 1mM glutamate), Mean",mGluR2 [4]; log[Glutamate] (M) -5.82391,0
same,"Intracellular Ca2+ Response (normalized to 1mM glutamate), Mean",mGluR2 [4]; log[Glutamate] (M) -6.52288,0
same,"Intracellular Ca2+ Response (normalized to 1mM glutamate), Mean",mGluR2 [4]; log[Glutamate] (M) -7,0

# Reference: paper PMC9299836 (eLife, 2022)
